# Experimental data as given in US11040958B2, “Triazole antimicrobial derivative, pharmaceutical composition and use thereof” (priority 2017, dated 2021).
# Experiments:
# [1] = In vitro metabolic stability in rat intestinal S9; format: in vitro ADME; conditions: 37°C, S9 1 mg/mL, compound 10 μM, NADPH regeneration system
# Procedure: (§1) The two reaction systems were set up three samples in parallel, while each sample was taken in an amount of 100 μL at 1 min, 2 mins, 5 mins, 15 mins, and 30 mins after the reaction, added to the centrifuge tube containing 400 μL of 0° C. pre-cooled internal standard working fluid and terminated the reaction. The sample was mixed by vortex for 1 min, centrifuged at 10,000×g for 10 mins in a 4° C. pre-cooled high-speed centrifuge. The supernatant was taken for HPLC detection. […] Concentration of mother liquor of compounds: 1 mM […] [table]
# [2] = Pharmacokinetics after single gastrointestinal (gavage) administration in rats (plasma voriconazole); format: in vivo; conditions: SD rats, 2.5 mg/kg (calculated as voriconazole)
# Procedure: Dosing volume for administration: 10 ml/kg
# Solvent medium for administration: except for the positive voriconazole group using CMC-Na, the other groups using normal saline
# Route of administration: gavage
# [3] = Solubility test in deionized water (HPLC, external calibration); format: physicochemical; conditions: deionized water, 25±2°C
# Procedure: Experimental condition: 25±2° C.
# Dissolving medium: deionized water
# Experimental method: 1 mg voriconazole and appropriate amount of each compound were weighed, placed in 1 ml deionized water separately, shaken vigorously for 30 s every 5 mins for 30 mins.
# [4] = In vitro metabolic stability in human plasma; format: in vitro ADME; conditions: 37°C, compound 10 μM
# Procedure: The two reaction systems were set up three samples in parallel, while each sample was taken in an amount of 100 μL at 1 min, 2 mins, 5 mins, 15 mins, and 30 mins after the reaction, added to the centrifuge tube containing 400 μL of 0° C. pre-cooled internal standard working fluid and terminated the reaction. The sample was mixed by vortex for 1 min, centrifuged at 10,000×g for 10 mins in a 4° C. pre-cooled high-speed centrifuge. The supernatant was taken for HPLC detection.
# [5] = tested on: Candida albicans ATCC10231; assay: Systemic fungal infection in mice, intravenous administration, survival; format: in vivo; conditions: ICR mice, tail vein, 5 mg/kg (calculated as voriconazole) once daily for 5 days
# Procedure: (§2) ICR mice, weighing 18-22 g, male, provided by the Hubei Experimental Animal Center.
# (§3) The standard strain Candida albicans was purchased from the American Type Culture Collection, and the strain number was ATCC10231.
# Before the experiment, a small amount of Candida albicans was picked from the SDA medium preserved at 4° C. by inoculation circle, and inoculated into 1 ml YPD (Yeast Extract Peptone Dextrose Medium, the same below) culture medium, under shake cultivation at 30° C., 200 rpm, activated for 16 hours to make the fungus in the late stage of the exponential growth phase. Blood cell counting plate was used to count. The concentration of the broth was adjusted to 1*10^3-5*10^3 CFU/ml with RPMI1640 (Roswell Park Memorial Institute 1640, the same below) culture medium. The Candida albicans monoclone on the SDA plate was picked and inoculated into 1 ml YPD medium, cultured at 35° C., 200 rpm for 16 hours to the late exponential growth phase, 1% of which was then inoculated in fresh medium for 6 hours, centrifuged at 1000×g for 5 mins, washed three times with saline until the supernatant was colorless, while hemocytometer was used to count. The cell concentration was adjusted to 5*10^6/ml. The tail vein injection of 0.1 ml/10 g was carried out to cause a systemic fungal infection in mice. The mice were randomized into groups of 10 each. Since voriconazole was insoluble in vehicle (physiological saline), the mice of the voriconazole group in the test were injected a commercially available voriconazole (Pfizer, product lot number Z467001), that is, sulfobutyl ether-β-cyclodextrin used as a solubilizer, while other groups used physiological saline as a solvent. After establishing a systemic fungal infection model in mice for 2 hours, each administration group was administered with 5 mg/kg (calculated as voriconazole) drug in the tail vein, with the volume for administration of 0.1 ml/10 g. The mice in the model group were administered 0.1 ml/10 g of 0.9% sodium chloride solution, once daily, for 5 consecutive days. The death situation of the mice was inspected and the survival time was recorded. After a total of 7 days of observation, all dead mice were treated with fire using ethanol.
# [6] = tested on: Candida albicans ATCC10231; assay: Systemic fungal infection in mice, administration by gavage, survival; format: in vivo; conditions: ICR mice, 5 mg/kg (calculated as voriconazole) once daily for 5 days
# Procedure: as §2, §3
# Before the experiment, a small amount of Candida albicans was picked from the SDA medium preserved at 4° C. by inoculation circle, inoculated into 1 ml of YPD culture medium, and cultured at 30° C. while being shaken at 200 rpm for 16 hours to make the fungus in the late stage of exponential growth. Blood cell counting plate was used to count, and the concentration of the broth was adjusted to 1*10^3−5*10^3 CFU/ml with RPMI1640 medium. The Candida albicans monoclone on the SDA plate was picked, inoculated into 1 ml YPD medium, cultured at 35° C., 200 rpm for 16 hours to the late exponential growth phase, 1% of which was then inoculated in fresh medium for 6 hours, centrifuged at 1000×g for 5 mins, washed three times with saline until the supernatant was colorless, while hemocytometer was used to count. The cell concentration was adjusted to 5*10^6/ml. The tail vein injection of 0.1 ml/10 g was carried out to cause a systemic fungal infection in mice. The mice were randomized into groups of 10 each. Voriconazole used was in the form of a suspension prepared with CMC-Na (Shanghai Panhong Chemical Technology Co., Ltd.), while other tested drugs were dissolved in saline and sonicated until clarified for administration. After establishing a systemic fungal infection model in mice for 2 hours, each group was administered by gavage with 5 mg/kg (calculated as voriconazole) drug, with the volume for administration of 0.1 ml/10 g. The mice in the model group were administered 0.1 ml/10 g of 0.9% sodium chloride solution, once daily, for 5 consecutive days. The death situation of the mice was inspected and the survival time was recorded. After a total of 7 days of observation, all dead mice were treated with fire using ethanol.
# [7] = In vitro metabolic stability in rat plasma; format: in vitro ADME; conditions: 37°C, compound 10 μM
# Procedure: The two reaction systems were set up three samples in parallel, while each sample was taken in an amount of 100 μL at 1 min, 2 mins, 5 mins, 15 mins, and 30 mins after the reaction, added to the centrifuge tube containing 400 μL of 0° C. pre-cooled internal standard working fluid and terminated the reaction. The sample was mixed by vortex for 1 min, centrifuged at 10,000×g for 10 mins in a 4° C. pre-cooled high-speed centrifuge. The supernatant was taken for HPLC detection. […] Concentration of mother liquor of compounds: 1 mM […]
# [8] = Pharmacokinetics after single intravenous administration in rats (plasma voriconazole); conditions: rat, in vivo, 2.5 mg/kg
# Procedure: Dosage for administration: 2.5 mg/kg (calculated as voriconazole)
# Dosing volume for administration: 2.5 ml/kg
# Drug concentration: 1 mg/mL (calculated as voriconazole)
# Route of administration: tail vein injection Experimental animals: SD rats, SPF grade, weighing 180-220 g, half male and half female; the SD rats were randomized into groups of 6 animals each, three males and three females in each group. Experimental method: Blood samples were collected at different time points after tail vein administration, and the plasma concentrations of voriconazole were measured.
# [9] = In vitro metabolic stability in human intestinal S9; format: in vitro ADME; conditions: 37°C, S9 1 mg/mL, compound 10 μM, NADPH regeneration system
# Procedure: as §1
Structure (SMILES),Rat intestinal S9 T1/2 [1] [min],AUClast [2] [ng·h/mL],Cmax [2] [ng/mL],T1/2 [2] [min],Solubility [3] [mg/mL],Human plasma T1/2 [4] [min],"survival rate of mice, day 1 [5] [%]","survival rate of mice, day 2 [5] [%]","survival rate of mice, day 3 [5] [%]","survival rate of mice, day 4 [5] [%]","survival rate of mice, day 5 [5] [%]","survival rate of mice, day 6 [5] [%]","survival rate of mice, day 1 [6] [%]","survival rate of mice, day 2 [6] [%]","survival rate of mice, day 3 [6] [%]","survival rate of mice, day 4 [6] [%]","survival rate of mice, day 5 [6] [%]","survival rate of mice, day 6 [6] [%]","survival rate of mice, day 7 [6] [%]",Rat plasma T1/2 [7] [min],further results
CC(OC(=O)N(C)c1ncccc1COC(=O)CN)[n+]1cnn(C[C@](O)(c2ccc(F)cc2F)[C@@H](C)c2ncncc2F)c1.[Cl-] (stereo partly drawn) [QR16001],10.15 ± 2.65,8562 ± 1125,789 ± 362,193 ± 76.8,>50,1.56 ± 0.26,100,100,100,100,100,100,100,100,100,100,90,80,80,1.23 ± 0.45,AUClast [8]: 10515 ± 1985 ng·h/mL; T1/2 [8]: 128 ± 58.8 min; Human intestinal S9 T1/2 [9]: 10.09 ± 1.75 min
CC(OC(=O)N(C)c1ncccc1COC(=O)C(N)CO)[n+]1cnn(CC(O)(c2ccc(F)cc2F)C(C)c2ncncc2F)c1.Cl.Cl.[Cl-] (stereo not drawn) [QR16015],15.95 ± 4.96,8144 ± 1468,996 ± 365,167 ± 73.8,>50,2.05 ± 0.26,100,100,100,100,100,90,100,100,100,100,100,80,80,1.58 ± 0.95,AUClast [8]: 10526 ± 2695 ng·h/mL; T1/2 [8]: 171 ± 107 min; Human intestinal S9 T1/2 [9]: 12.72 ± 1.72 min
CC(O)C(N)C(=O)OCc1cccnc1N(C)C(=O)OC(C)[n+]1cnn(CC(O)(c2ccc(F)cc2F)C(C)c2ncncc2F)c1.Cl.Cl.[Cl-] (stereo not drawn) [QR16016],19.62 ± 3.69,8332 ± 3254,885 ± 344,134 ± 75,>50,2.12 ± 1.07,100,100,100,100,100,90,100,100,90,90,90,90,80,1.95 ± 0.87,AUClast [8]: 10477 ± 1854 ng·h/mL; T1/2 [8]: 159 ± 52.8 min; Human intestinal S9 T1/2 [9]: 15.72 ± 0.98 min
